Results as given in US20210032344A1, “METHODS OF TREATING TUMOR” (Bristol-Myers Squibb Company, priority 2018, published 2021).

Columns and labels:
[1] = system: patients with stage IV or recurrent NSCLC; details: in vivo
Source text: Overall response rates (ORR), duration of response, and safety were exploratory endpoints. Adverse events were graded according to the National Cancer Institute Common Terminology Criteria for Adverse Events, version 4.0.

[2] = system: stage IV or recurrent NSCLC; test: Phase 3 trial, part 1: first-line nivolumab-based regimens vs chemotherapy; efficacy (PFS, ORR, duration of response); format: in vivo, human
Source text: This trial is an open-label, multi-part phase 3 study of first-line nivolumab and nivolumab-based combinations in biomarker-selected NSCLC populations. […] The study continues for the co-primary endpoint of overall survival in PD-L1-selected patients.
Patients had chemotherapy-naive, stage IV or recurrent NSCLC.
Adult patients with PD-L1-histologically confirmed squamous or nonsquamous stage IV/recurrent NSCLC and Eastern Cooperative Oncology Group (ECOG) performance status (Oken M. M., et al. Am J Clin Oncol 5:649-55 (1982)) of 0 or 1 who had received no prior systemic anticancer therapy as primary therapy for advanced or metastatic disease were eligible for the study. All patients underwent imaging to screen for brain metastases. Patients with known EGFR mutations or ALK translocations sensitive to targeted therapy, an autoimmune disease, or untreated central nervous system metastases were excluded.
All treatments continued until disease progression, unacceptable toxicity, or completion per protocol (up to 2 years for immunotherapy). Crossover between treatment arms within the study was not permitted.
Part 1 of this study had two co-primary endpoints.

[3] = monotherapy, every two weeks; MTD not reached; cited from earlier work

nivolumab
safety / tolerability (in words) [1]: well tolerated | median PFS ([2]; TMB ≥10 mutations/Mb and ≥1% PD-L1 expression): 4.2 months | median PFS ([2]; TMB ≥13 mutations/Mb and ≥1% PD-L1 expression): 4.2 months | PFS hazard ratio (HR), nivolumab vs. chemotherapy ([2]; in vivo): 0.95 | maximum tolerated dose (MTD) [3]: > 10 mg/kg
